In ChEMBL document CHEMBL4507292 (2021):

Tests used:
[1] = target: Cyclin-dependent kinase 3 (Homo sapiens) (UniProt Q00526); settings: Compound concentration 1000.0 nM
[2] = target: Fibroblast growth factor receptor 3 (Homo sapiens) (UniProt P22607); settings: Compound concentration 1000.0 nM
[3] = target: Casein kinase II subunit alpha' (Homo sapiens) (UniProt P19784); settings: Compound concentration 1000.0 nM
[4] = tested on: Phosphatidylinositol 4,5-bisphosphate 3-kinase catalytic subunit alpha isoform (Homo sapiens), P42336 [E545A]; settings: Compound concentration 1000.0 nM
[5] = target: Serine/threonine-protein kinase TAO1 (Homo sapiens) (UniProt Q7L7X3); settings: Compound concentration 1000.0 nM
Chain of Serine/threonine-protein kinase TAO1 (Homo sapiens) (Q7L7X3 whole entry): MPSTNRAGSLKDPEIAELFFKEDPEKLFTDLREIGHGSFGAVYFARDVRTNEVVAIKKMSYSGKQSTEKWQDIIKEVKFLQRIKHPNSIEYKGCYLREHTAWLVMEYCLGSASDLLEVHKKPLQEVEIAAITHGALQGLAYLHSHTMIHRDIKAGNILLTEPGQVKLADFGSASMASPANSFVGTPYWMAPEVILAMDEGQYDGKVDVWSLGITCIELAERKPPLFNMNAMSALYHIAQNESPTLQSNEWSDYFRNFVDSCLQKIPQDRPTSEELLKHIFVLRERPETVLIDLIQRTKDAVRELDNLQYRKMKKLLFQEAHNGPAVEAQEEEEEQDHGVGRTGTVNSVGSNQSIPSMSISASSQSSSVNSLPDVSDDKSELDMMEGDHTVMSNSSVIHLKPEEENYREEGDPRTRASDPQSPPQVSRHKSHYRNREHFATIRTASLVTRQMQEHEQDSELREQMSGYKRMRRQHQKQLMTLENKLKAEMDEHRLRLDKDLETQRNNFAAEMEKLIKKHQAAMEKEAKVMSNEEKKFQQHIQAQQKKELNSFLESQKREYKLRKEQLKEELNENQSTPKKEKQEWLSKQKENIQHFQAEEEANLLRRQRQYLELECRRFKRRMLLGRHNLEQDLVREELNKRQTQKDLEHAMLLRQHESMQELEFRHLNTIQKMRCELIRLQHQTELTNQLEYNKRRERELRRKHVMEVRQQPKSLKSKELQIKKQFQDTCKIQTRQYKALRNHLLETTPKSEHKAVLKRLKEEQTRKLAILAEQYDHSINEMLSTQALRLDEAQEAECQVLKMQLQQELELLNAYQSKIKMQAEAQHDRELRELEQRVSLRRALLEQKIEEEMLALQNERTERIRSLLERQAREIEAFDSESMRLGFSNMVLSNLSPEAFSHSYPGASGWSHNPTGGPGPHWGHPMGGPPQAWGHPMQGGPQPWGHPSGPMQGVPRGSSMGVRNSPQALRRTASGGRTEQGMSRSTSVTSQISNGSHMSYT

[6] = target: Serine/threonine-protein kinase RIO1 (Homo sapiens) (UniProt Q9BRS2); settings: Compound concentration 1000.0 nM
[7] = target: Protein-tyrosine kinase 2-beta (Homo sapiens) (UniProt Q14289); settings: Compound concentration 1000.0 nM
[8] = target: Tyrosine-protein kinase ZAP-70 (Homo sapiens) (UniProt P43403); settings: Compound concentration 1000.0 nM
[9] = target: Cyclin-dependent kinase 2 (Homo sapiens) (UniProt P24941); settings: Compound concentration 1000.0 nM
[10] = target: Serine/threonine-protein kinase SIK3 (Homo sapiens) (UniProt Q9Y2K2); settings: Compound concentration 1000.0 nM
[11] = target: 5-hydroxytryptamine receptor 1E (Homo sapiens) (UniProt P28566); settings: Compound concentration 10.0 uM
[12] = target: Mitogen-activated protein kinase 7 (Homo sapiens) (UniProt Q13164); settings: Compound concentration 1000.0 nM
[13] = target: Phosphatidylinositol 4,5-bisphosphate 3-kinase catalytic subunit gamma isoform (Homo sapiens) (UniProt P48736); settings: Compound concentration 1000.0 nM
[14] = target: Receptor-type tyrosine-protein kinase FLT3 (Homo sapiens) (UniProt P36888); settings: Compound concentration 1000.0 nM
D(1A) dopamine receptor = D(1A) dopamine receptor (Homo sapiens, UniProt P21728); settings: Compound concentration 10.0 uM
[15] = target: Serine/threonine-protein kinase pim-2 (Homo sapiens) (UniProt Q9P1W9); settings: Compound concentration 1000.0 nM
[16] = target: Serine/threonine-protein kinase 32C (Homo sapiens) (UniProt Q86UX6); settings: Compound concentration 1000.0 nM
[17] = tested on: Tyrosine-protein kinase ABL1 (Homo sapiens), P00519 [E255K]; settings: Compound concentration 1000.0 nM
[18] = target: Serine/threonine-protein kinase MAK (Homo sapiens) (UniProt P20794); settings: Compound concentration 1000.0 nM
[19] = target: Death-associated protein kinase 2 (Homo sapiens) (UniProt Q9UIK4); settings: Compound concentration 1000.0 nM
[20] = tested on: Tyrosine-protein kinase ABL1 (Homo sapiens), P00519 [F317I]; settings: Compound concentration 1000.0 nM
[21] = target: Serine/threonine-protein kinase Nek2 (Homo sapiens) (UniProt P51955); settings: Compound concentration 1000.0 nM
[22] = tested on: Receptor-type tyrosine-protein kinase FLT3 (Homo sapiens), P36888 [D835H]; settings: Compound concentration 1000.0 nM
[23] = target: Muscarinic acetylcholine receptor M4 (Homo sapiens) (UniProt P08173); settings: Compound concentration 10.0 uM
Chain of Muscarinic acetylcholine receptor M4 (Homo sapiens) (P08173 whole entry): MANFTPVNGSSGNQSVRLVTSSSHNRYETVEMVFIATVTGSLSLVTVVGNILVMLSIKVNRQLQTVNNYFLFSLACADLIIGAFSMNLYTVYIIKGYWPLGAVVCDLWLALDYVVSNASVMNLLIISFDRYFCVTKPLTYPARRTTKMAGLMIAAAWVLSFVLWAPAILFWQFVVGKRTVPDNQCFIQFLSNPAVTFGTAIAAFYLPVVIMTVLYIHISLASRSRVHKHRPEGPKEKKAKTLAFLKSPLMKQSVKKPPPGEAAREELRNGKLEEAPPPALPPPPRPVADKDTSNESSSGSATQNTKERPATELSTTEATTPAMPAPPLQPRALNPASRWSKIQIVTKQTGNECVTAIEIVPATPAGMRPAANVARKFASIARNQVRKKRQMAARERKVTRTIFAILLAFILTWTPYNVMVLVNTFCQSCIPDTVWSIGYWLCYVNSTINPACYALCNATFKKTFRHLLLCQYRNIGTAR

[24] = target: Homeodomain-interacting protein kinase 4 (Homo sapiens) (UniProt Q8NE63); settings: Compound concentration 1000.0 nM
[25] = target: Tyrosine-protein kinase Fgr (Homo sapiens) (UniProt P09769); settings: Compound concentration 1000.0 nM
[26] = target: Ephrin type-A receptor 4 (Homo sapiens) (UniProt P54764); settings: Compound concentration 1000.0 nM
[27] = target: Mitogen-activated protein kinase kinase kinase 2 (Homo sapiens) (UniProt Q9Y2U5); settings: Compound concentration 1000.0 nM
[28] = target: Mitogen-activated protein kinase 15 (Homo sapiens) (UniProt Q8TD08); settings: Compound concentration 1000.0 nM
[29] = target: Interleukin-1 receptor-associated kinase 3 (Homo sapiens) (UniProt Q9Y616); settings: Compound concentration 1000.0 nM
Chain of Interleukin-1 receptor-associated kinase 3 (Homo sapiens) (Q9Y616 whole entry): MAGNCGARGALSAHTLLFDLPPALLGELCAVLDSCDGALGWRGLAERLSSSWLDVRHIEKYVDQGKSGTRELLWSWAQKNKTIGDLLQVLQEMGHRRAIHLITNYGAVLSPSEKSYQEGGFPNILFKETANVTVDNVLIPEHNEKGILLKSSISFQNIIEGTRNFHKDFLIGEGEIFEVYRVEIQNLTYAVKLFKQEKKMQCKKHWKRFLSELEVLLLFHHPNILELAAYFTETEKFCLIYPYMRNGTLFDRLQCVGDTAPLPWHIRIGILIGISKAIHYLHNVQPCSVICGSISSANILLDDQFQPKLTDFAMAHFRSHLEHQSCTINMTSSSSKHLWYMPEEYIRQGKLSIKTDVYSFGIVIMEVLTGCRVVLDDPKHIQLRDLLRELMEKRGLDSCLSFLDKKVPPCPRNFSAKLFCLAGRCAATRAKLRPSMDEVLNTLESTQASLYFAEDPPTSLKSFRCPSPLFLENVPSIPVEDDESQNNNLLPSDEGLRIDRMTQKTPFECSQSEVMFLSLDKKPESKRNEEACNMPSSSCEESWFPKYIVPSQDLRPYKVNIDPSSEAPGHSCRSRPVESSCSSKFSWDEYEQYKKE

[30] = target: Ribosomal protein S6 kinase alpha-6 (Homo sapiens) (UniProt Q9UK32); settings: Compound concentration 1000.0 nM
[31] = target: Casein kinase I isoform gamma-3 (Homo sapiens) (UniProt Q9Y6M4); settings: Compound concentration 1000.0 nM
[32] = target: Sigma intracellular receptor 2 (Homo sapiens, UniProt Q5BJF2); assay: GPCRScan assay: inhibition of Sigma 2; parameters: radioligand conc. used [nm] 5.0, parental cells HEKT
Chain of Sigma intracellular receptor 2 (Q5BJF2 whole entry): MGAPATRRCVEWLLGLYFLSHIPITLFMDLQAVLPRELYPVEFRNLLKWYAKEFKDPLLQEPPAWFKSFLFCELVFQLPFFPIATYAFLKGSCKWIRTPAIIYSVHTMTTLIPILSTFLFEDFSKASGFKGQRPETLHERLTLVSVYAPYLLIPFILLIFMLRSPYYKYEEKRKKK

[33] = tested on: Receptor-type tyrosine-protein kinase FLT3 (Homo sapiens), P36888 [N841I]; settings: Compound concentration 1000.0 nM
[34] = target: Sigma non-opioid intracellular receptor 1 (Homo sapiens, UniProt Q99720); assay: GPCRScan assay: inhibition of Sigma 1; parameters: radioligand conc. used [nm] 4.0 – 5.0, parental cells HEKT
[35] = target: Tyrosine-protein kinase JAK1 (Homo sapiens) (UniProt P23458); settings: Compound concentration 1000.0 nM
Chain of Tyrosine-protein kinase JAK1 (Homo sapiens) (P23458 whole entry): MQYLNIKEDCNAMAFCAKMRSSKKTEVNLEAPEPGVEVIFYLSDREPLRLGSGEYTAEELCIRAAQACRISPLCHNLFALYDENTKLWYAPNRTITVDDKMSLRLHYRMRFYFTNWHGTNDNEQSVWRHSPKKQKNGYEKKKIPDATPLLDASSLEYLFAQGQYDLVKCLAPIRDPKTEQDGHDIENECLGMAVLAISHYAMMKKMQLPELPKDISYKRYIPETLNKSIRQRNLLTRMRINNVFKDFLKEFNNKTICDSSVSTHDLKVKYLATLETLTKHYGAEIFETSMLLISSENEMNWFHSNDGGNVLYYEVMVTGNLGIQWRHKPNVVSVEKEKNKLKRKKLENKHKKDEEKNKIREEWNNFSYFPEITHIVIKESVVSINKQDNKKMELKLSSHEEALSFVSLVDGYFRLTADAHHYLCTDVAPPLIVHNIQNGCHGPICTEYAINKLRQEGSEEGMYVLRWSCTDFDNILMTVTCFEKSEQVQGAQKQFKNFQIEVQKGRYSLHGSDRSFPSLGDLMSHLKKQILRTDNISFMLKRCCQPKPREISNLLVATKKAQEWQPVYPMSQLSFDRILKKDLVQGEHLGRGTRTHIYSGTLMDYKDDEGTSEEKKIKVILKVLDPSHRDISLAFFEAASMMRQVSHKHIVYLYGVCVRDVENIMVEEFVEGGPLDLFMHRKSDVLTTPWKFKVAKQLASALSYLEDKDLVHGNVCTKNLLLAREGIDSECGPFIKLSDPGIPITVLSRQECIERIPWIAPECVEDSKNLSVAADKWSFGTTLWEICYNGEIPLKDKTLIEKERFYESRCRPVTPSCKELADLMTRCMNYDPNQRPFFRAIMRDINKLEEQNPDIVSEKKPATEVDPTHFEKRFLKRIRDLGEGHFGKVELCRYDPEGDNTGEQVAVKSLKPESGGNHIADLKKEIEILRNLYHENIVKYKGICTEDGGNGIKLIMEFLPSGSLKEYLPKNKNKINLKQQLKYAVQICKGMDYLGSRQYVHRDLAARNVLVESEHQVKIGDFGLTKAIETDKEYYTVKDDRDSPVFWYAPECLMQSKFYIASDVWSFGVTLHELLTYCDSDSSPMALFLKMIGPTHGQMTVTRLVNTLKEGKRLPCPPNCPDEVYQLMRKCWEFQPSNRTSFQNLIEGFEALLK

[36] = target: Receptor tyrosine-protein kinase erbB-3 (Homo sapiens) (UniProt P21860); settings: Compound concentration 1000.0 nM
[37] = target: Mitogen-activated protein kinase kinase kinase 6 (Homo sapiens) (UniProt O95382); settings: Compound concentration 1000.0 nM
[38] = target: Vascular endothelial growth factor receptor 3 (Homo sapiens) (UniProt P35916); settings: Compound concentration 1000.0 nM
[39] = target: Mitogen-activated protein kinase kinase kinase 1 (Homo sapiens) (UniProt Q13233); settings: Compound concentration 1000.0 nM
[40] = target: Serine/threonine-protein kinase D2 (Homo sapiens) (UniProt Q9BZL6); settings: Compound concentration 1000.0 nM
[41] = target: Dual specificity mitogen-activated protein kinase kinase 3 (Homo sapiens) (UniProt P46734); settings: Compound concentration 1000.0 nM
[42] = target: Serine/threonine-protein kinase D3 (Homo sapiens) (UniProt O94806); settings: Compound concentration 1000.0 nM
[43] = target: Mitogen-activated protein kinase kinase kinase 15 (Homo sapiens) (UniProt Q6ZN16); settings: Compound concentration 1000.0 nM
Chain of Mitogen-activated protein kinase kinase kinase 15 (Homo sapiens) (Q6ZN16 whole entry): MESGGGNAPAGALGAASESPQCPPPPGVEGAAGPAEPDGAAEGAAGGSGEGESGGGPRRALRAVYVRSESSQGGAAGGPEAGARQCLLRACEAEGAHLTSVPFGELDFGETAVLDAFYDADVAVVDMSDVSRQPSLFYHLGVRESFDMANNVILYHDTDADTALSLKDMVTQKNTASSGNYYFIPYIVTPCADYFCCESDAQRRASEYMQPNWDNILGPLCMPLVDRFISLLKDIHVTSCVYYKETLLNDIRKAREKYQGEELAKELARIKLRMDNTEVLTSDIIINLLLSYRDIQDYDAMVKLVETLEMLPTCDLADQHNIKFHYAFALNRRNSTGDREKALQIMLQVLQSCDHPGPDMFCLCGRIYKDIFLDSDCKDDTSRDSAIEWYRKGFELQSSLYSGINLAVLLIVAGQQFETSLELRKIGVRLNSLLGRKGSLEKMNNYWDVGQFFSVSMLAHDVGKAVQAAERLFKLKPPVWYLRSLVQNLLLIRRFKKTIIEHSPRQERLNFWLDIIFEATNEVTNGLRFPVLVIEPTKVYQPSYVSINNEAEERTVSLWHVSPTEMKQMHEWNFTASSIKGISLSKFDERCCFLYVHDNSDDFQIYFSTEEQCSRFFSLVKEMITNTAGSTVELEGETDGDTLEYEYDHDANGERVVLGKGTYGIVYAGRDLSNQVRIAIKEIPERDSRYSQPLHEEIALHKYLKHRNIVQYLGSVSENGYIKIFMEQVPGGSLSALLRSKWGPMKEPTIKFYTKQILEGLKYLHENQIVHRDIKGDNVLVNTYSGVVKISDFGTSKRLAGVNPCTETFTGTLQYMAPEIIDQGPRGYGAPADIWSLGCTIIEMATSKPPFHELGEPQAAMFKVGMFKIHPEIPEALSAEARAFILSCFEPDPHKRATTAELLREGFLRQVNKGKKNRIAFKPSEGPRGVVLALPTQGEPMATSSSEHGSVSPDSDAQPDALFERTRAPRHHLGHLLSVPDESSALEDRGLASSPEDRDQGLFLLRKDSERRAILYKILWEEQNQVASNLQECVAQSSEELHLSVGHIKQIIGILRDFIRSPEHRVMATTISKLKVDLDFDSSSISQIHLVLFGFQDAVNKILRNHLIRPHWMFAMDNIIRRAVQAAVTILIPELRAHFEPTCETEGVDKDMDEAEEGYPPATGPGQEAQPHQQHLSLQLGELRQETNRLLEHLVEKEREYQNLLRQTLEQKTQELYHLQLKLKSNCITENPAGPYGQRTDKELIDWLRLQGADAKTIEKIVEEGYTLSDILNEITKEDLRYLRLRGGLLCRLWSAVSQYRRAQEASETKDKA

[44] = target: High affinity nerve growth factor receptor (Homo sapiens) (UniProt P04629); settings: Compound concentration 1000.0 nM

Chain of Casein kinase II subunit alpha' (Homo sapiens) (P19784 whole entry, looked up, canonical isoform): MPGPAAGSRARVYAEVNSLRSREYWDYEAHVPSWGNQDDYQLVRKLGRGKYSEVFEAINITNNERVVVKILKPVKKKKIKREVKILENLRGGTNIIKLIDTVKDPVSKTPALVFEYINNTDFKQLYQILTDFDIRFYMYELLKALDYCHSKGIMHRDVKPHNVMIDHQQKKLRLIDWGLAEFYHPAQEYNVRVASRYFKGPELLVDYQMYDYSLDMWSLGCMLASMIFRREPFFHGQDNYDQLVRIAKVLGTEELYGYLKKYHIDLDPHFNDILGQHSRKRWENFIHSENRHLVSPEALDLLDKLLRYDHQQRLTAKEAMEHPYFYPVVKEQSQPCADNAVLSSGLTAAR

Cc1c(C(=O)O)cc(-c2ccc(C3CCNCC3)cc2)c2ccc(-c3ccc(C(F)(F)F)cc3)cc12 [PPTN-NC]
residual activity [1]: 100% | residual activity [2]: 100% | residual activity [3]: 100% | residual activity [4]: 100% | residual activity [5]: 100% | residual activity [6]: 100% | residual activity [7]: 100% | residual activity [8]: 100% | residual activity [9]: 100% | residual activity [10]: 100% | inhibition [11]: 3.48% | residual activity [12]: 100% | residual activity [13]: 100% | residual activity [14]: 100% | inhibition (D(1A) dopamine receptor): 61.4% | residual activity [15]: 100% | residual activity [16]: 100% | residual activity [17]: 96% | residual activity [18]: 91% | residual activity [19]: 100% | residual activity [20]: 100% | residual activity [21]: 100% | residual activity [22]: 90% | inhibition [23]: -5.54% | residual activity [24]: 100% | residual activity [25]: 100% | residual activity [26]: 100% | residual activity [27]: 100% | residual activity [28]: 100% | residual activity [29]: 100% | residual activity [30]: 100% | residual activity [31]: 100% | Ki [32]: 1700 nM | residual activity [33]: 100% | Ki [34]: 1170 nM | residual activity [35]: 100% | residual activity [36]: 86% | residual activity [37]: 100% | residual activity [38]: 100% | residual activity [39]: 100% | residual activity [40]: 100% | residual activity [41]: 100% | residual activity [42]: 100% | residual activity [43]: 100% | residual activity [44]: 100%

O=C(O)c1cc(-c2ccc(C3CCNCC3)cc2)c2ccc(-c3ccc(C(F)(F)F)cc3)cc2c1 [PPTN]
residual activity [1]: 100% | residual activity [2]: 100% | residual activity [3]: 100% | residual activity [4]: 87% | residual activity [5]: 100% | residual activity [6]: 100% | residual activity [7]: 100% | residual activity [8]: 100% | residual activity [9]: 100% | residual activity [10]: 100% | inhibition [11]: 13.4% | residual activity [12]: 100% | residual activity [13]: 92% | residual activity [14]: 100% | inhibition (D(1A) dopamine receptor): 71.4% | residual activity [15]: 100% | residual activity [16]: 100% | residual activity [17]: 87% | residual activity [18]: 100% | residual activity [19]: 100% | residual activity [20]: 100% | residual activity [21]: 100% | residual activity [22]: 81% | inhibition [23]: -4.96% | residual activity [24]: 100% | residual activity [25]: 100% | residual activity [26]: 100% | residual activity [27]: 100% | residual activity [28]: 100% | residual activity [29]: 100% | residual activity [30]: 100% | residual activity [31]: 100% | Ki [32]: 1120 nM | residual activity [33]: 100% | Ki [34]: 1180 nM | residual activity [35]: 100% | residual activity [36]: 85% | residual activity [37]: 100% | residual activity [38]: 100% | residual activity [39]: 100% | residual activity [40]: 100% | residual activity [41]: 100% | residual activity [42]: 100% | residual activity [43]: 99% | residual activity [44]: 100%
